Experimental data taken from US9284329B2, “Thienopyridone derivatives useful as activators of AMPK” (POXEL, priority 2012, dated 2016).

System: AMPK
Experiment: AMPK enzymatic activity (Delfia technology, AMARA peptide substrate)
Assay type: biochemical
Conditions: AMP at 200 μM as reference
Protocol: The following biological test allows the determination of the efficacy of compounds of formula (I) onto AMPK protein.
AMPK enzyme activities were assayed by using a Delfia technology. AMPK enzyme activities were carried out in microtiter plates in the presence of a synthetic peptide substrate (AMARAASAAALARRR, the “AMARA” peptide) and activators in serial dilutions. Reactions were initiated by the addition of AMPK. Enzyme activity was assayed by using an anti-phosphoserine antibody to measure the quantity of phosphate incorporated into the AMARAA.
N°: Number of the molecule
Activity: Ratio between the % of control (basal activity) of compound of formula (1) at 30 μM and the % of control (basal activity) of AMP (natural substrate) at 200 μM.
With `COc1ccc(-c2c(O)c3c(-c4ccc5c(c4)CCC5)c(Cl)sc3[nH]c2=O)cc1` [Compound 1, 2-chloro-4-hydroxy-3-indan-5-yl-5-(4-methoxyphenyl)-7H-thieno[2,3-b]pyridin-6-one] the “Activity: Ratio between the % of control (basal activity) of compound at 30 μM and the % of control (basal activity) of AMP at 200 μM” value (shortened to “Activity: Ratio between the % of control”) was “C (C>130%)”.
With `O=c1[nH]c2sc(Cl)c(-c3ccc4c(c3O)CCC4)c2c(O)c1-c1ccccc1` [Compound 2, 2-chloro-4-hydroxy-3-(4-hydroxyindan-5-yl)-5-phenyl-7H-thieno[2,3-b]pyridin-6-one] the “Activity: Ratio between the % of control” value was “B (110%<B<130%)”.
In the case of `O=c1[nH]c2sc(Cl)c(-c3ccc4c(c3)CCCC4)c2c(O)c1-c1ccccc1` [Compound 17, 2-chloro-4-hydroxy-5-phenyl-3-tetralin-6-yl-7H-thieno [2,3-b]pyridin-6-one], the “Activity: Ratio between the % of control” value is reported as “A (A<110%)”.
With `O=c1[nH]c2sc(Cl)c(-c3ccc4c(c3)CCC4)c2c(O)c1-c1cccnc1` [Compound 10, 2-chloro-4-hydroxy-3-indan-5-yl-5-(3-pyridyl)-7H-thieno[2,3-b]pyridin-6-one] the “Activity: Ratio between the % of control” value was “A (A<110%)”.
With `Cc1cccc(-c2c(O)c3c(-c4ccc5c(c4)CCC5)c(Cl)sc3[nH]c2=O)c1` [Compound 7, 2-chloro-4-hydroxy-3-indan-5-yl-5-(m-tolyl)-7H-thieno[2,3-b]pyridin-6-one] the “Activity: Ratio between the % of control” value was “C (C>130%)”.
In the case of `O=c1[nH]c2sc(Cl)c(-c3ccc4c(c3O)CCCC4)c2c(O)c1-c1ccc(F)cc1` [Compound 18, 2-chloro-5-(4-fluorophenyl)-4-hydroxy-3-(5-hydroxytetralin-6-yl)-7H-thieno[2,3-b]pyridin-6-one], the “Activity: Ratio between the % of control” value is reported as “B (110%<B<130%)”.
For `O=c1[nH]c2sc(Cl)c(-c3ccc4c(c3O)CCCC4)c2c(O)c1-c1ccccc1` [Compound 12, 2-chloro-4-hydroxy-3-(5-hydroxytetralin-6-yl)-5-phenyl-7H-thieno[2,3-b]pyridin-6-one], the “Activity: Ratio between the % of control” value was “C (C>130%)”.
In the case of `N#Cc1cccc(-c2c(O)c3c(-c4ccc5c(c4)CCCC5)c(Cl)sc3[nH]c2=O)c1` [Compound 15, 3-(2-chloro-4-hydroxy-6-oxo-3-tetralin-6-yl-7H-thieno[2,3-b]pyridin-5-yl)benzonitrile], the “Activity: Ratio between the % of control” value is reported as “B (110%<B<130%)”.
With `O=c1[nH]c2sc(Cl)c(-c3ccc4c(c3)CCC4)c2c(O)c1-c1ccc(F)cc1` [Compound 4, 2-chloro-5-(4-fluorophenyl)-4-hydroxy-3-indan-5-yl-7H-thieno[2,3-b]pyridin-6-one] the “Activity: Ratio between the % of control” value was “B (110%<B<130%)”.
With `O=c1[nH]c2sc(Cl)c(-c3ccc4c(c3)CCC4)c2c(O)c1-c1ccccc1` [Compound 3, 2-chloro-4-hydroxy-3-indan-5-yl-5-phenyl-7H-thieno[2,3-b]pyridin-6-one] the “Activity: Ratio between the % of control” value was “B (110%<B<130%)”.
In the case of `O=c1[nH]c2sc(Cl)c(-c3ccc4c(c3)CCCC4)c2c(O)c1-c1cccnc1` [Compound 13, 2-chloro-4-hydroxy-5-(3-pyridyl)-3-tetralin-6-yl-7H-thieno[2,3-b]pyridin-6-one], the “Activity: Ratio between the % of control” value is reported as “C (C>130%)”.
For `N#Cc1cccc(-c2c(O)c3c(-c4ccc5c(c4)CCC5)c(Cl)sc3[nH]c2=O)c1` [Compound 6, 3-(2-chloro-4-hydroxy-3-indan-5-yl-6-oxo-7H-thieno[2,3-b]pyridin-5-yl)benzonitrile], the “Activity: Ratio between the % of control” value was “C (C>130%)”.
In the case of `Cc1ccc(-c2c(O)c3c(-c4ccc5c(c4O)CCCC5)c(Cl)sc3[nH]c2=O)cc1` [Compound 21, 2-chloro-4-hydroxy-3-(5-hydroxytetralin-6-yl)-5-(p-tolyl)-7H-thieno[2,3-b]pyridin-6-one], the “Activity: Ratio between the % of control” value is reported as “C (C>130%)”.
For `O=c1[nH]c2sc(Cl)c(-c3ccc4c(c3O)CCC4)c2c(O)c1-c1ccc(F)cc1` [Compound 8, 2-chloro-5-(4-fluorophenyl)-4-hydroxy-3-(4-hydroxyindan-5-yl)-7H-thieno[2,3-b]pyridin-6-one], the “Activity: Ratio between the % of control” value was “C (C>130%)”.
For `COc1cccc(-c2c(O)c3c(-c4ccc5c(c4)CCC5)c(Cl)sc3[nH]c2=O)c1` [Compound 5, 2-chloro-4-hydroxy-3-indan-5-yl-5-(3-methoxyphenyl)-7H-thieno[2,3-b]pyridin-6-one], the “Activity: Ratio between the % of control” value was “C (C>130%)”.
In the case of `O=c1[nH]c2sc(Cl)c(-c3ccc4c(c3O)CCC4)c2c(O)c1-c1cccc(F)c1` [Compound 9, 2-chloro-5-(3-fluorophenyl)-4-hydroxy-3-(4-hydroxyindan-5-yl)-7H-thieno[2,3-b]pyridin-6-one], the “Activity: Ratio between the % of control” value is reported as “C (C>130%)”.
With `O=c1[nH]c2sc(Cl)c(-c3ccc4c(c3[O-])CCCC4)c2c([O-])c1-c1ccccc1.[Na+].[Na+]` [Compound 19, disodium 2-chloro-3-(5-oxidotetralin-6-yl)-6-oxo-5-phenyl-7H-thieno[2,3-b]pyridin-4-olate] the “Activity: Ratio between the % of control” value was “C (C>130%)”.
With `Cc1cccc(-c2c(O)c3c(-c4ccc5c(c4O)CCCC5)c(Cl)sc3[nH]c2=O)c1` [Compound 20, 2-chloro-4-hydroxy-3-(5-hydroxytetralin-6-yl)-5-(m-tolyl)-7H-thieno[2,3-b]pyridin-6-one] the “Activity: Ratio between the % of control” value was “C (C>130%)”.
In the case of `O=c1[nH]c2sc(Cl)c(-c3ccc4c(c3O)CCC4)c2c(O)c1-c1ccccc1F` [Compound 11, 2-chloro-5-(2-fluorophenyl)-4-hydroxy-3-(4-hydroxyindan-5-yl)-7H-thieno[2,3-b]pyridin-6-one], the “Activity: Ratio between the % of control” value is reported as “B (110%<B<130%)”.
For `[Na+].[Na+].[Na+].[O-]c1nc2sc(Cl)c(-c3ccc4c(c3[O-])CCCC4)c2c([O-])c1-c1ccccc1` [Compound 16, trisodium 2-chloro-3-(5-oxidotetralin-6-yl)-5-phenyl-thieno[2,3-b]pyridine-4,6-diolate], the “Activity: Ratio between the % of control” value was “B (110%<B<130%)”.

System: Ob/ob mice
Experiment: In vivo control of glycemia in ob/ob mice
Conditions: oral BID during 8 days, 150 mg/kg, compared to an animal group control
Protocol: The following biological test allows the determination of the efficacy of compounds of formula (I) onto the control of glycemia on a pharmaceutical animal model.
All experiments on animals were carried out in accordance with the European animal care guidelines (ETS123).
Ob/ob mice from CERJ (53940 Le Genest Saint Isle, France) were treated orally with compounds of formula (1) BID during 8 days. At that time, a blood sample was collected and glucose concentration was determined using ABX diagnostic kit.
Results are given as a percentage of glycemia variation compared to an animal group control.
With `O=c1[nH]c2sc(Cl)c(-c3ccc4c(c3O)CCCC4)c2c(O)c1-c1ccccc1` [Compound 12, 2-chloro-4-hydroxy-3-(5-hydroxytetralin-6-yl)-5-phenyl-7H-thieno[2,3-b]pyridin-6-one] the “% glycemia variation” value was −27%.
With `O=c1[nH]c2sc(Cl)c(-c3ccc4c(c3[O-])CCCC4)c2c([O-])c1-c1ccccc1.[Na+].[Na+]` [Compound 19, disodium 2-chloro-3-(5-oxidotetralin-6-yl)-6-oxo-5-phenyl-7H-thieno[2,3-b]pyridin-4-olate] the “% glycemia variation” value was −41%.

System: ob/ob and db/db mice
Experiment: not given
Conditions: 8 day administration; cited from earlier work
In the case of `NC(=O)c1ncn([C@@H]2O[C@H](CO)[C@@H](O)[C@H]2O)c1N` [AICAR], the reduces blood glucose is given as 35%.
